How the values were obtained:
Assay type in all cases: in vivo
[1] = test system: barnyardgrass (Echinochloa crus-galli); test: Test A preemergence; settings: Echinochloa crus-galli, pre-emergence, 240 h, Preemergence
Summary of the method: (§1)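 Greenhouse, ~10 d after spray; visual injury vs untreated controls, 0 = no effect, 100 = complete control. Preemergence: directed soil spray over planted seeds. Postemergence: plants 2–10 cm, 1–2 leaf stage. Loam/sand blend. Compound in non-phytotoxic solvent with surfactant.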

[2] = test system: ragweed (common ragweed, Ambrosia elatior); test: Test A preemergence; settings: Ambrosia artemisiifolia, pre-emergence, 240 h, Preemergence
Summary of the method: as §1

[3] = test system: ryegrass, Italian (Italian ryegrass, Lolium multiflorum); test: Test A preemergence; settings: Lolium multiflorum, pre-emergence, 240 h, Preemergence
Summary of the method: as §1

[4] = test system: giant foxtail (Setaria faberii); test: Test A preemergence; settings: Setaria faberi, pre-emergence, 240 h, Preemergence
Summary of the method: as §1

[5] = test system: Kochia (Kochia scoparia); test: Test A preemergence; settings: Bassia scoparia, pre-emergence, 240 h, Preemergence
Summary of the method: as §1

[6] = test system: pigweed (Amaranthus retroflexus); test: Test A preemergence; settings: Amaranthus retroflexus, pre-emergence, 240 h, Preemergence
[7] = test system: blackgrass (Alopecurus myosuroides); test: Test A postemergence; settings: Alopecurus myosuroides, post-emergence, 240 h
Summary of the method: as §1

[8] = test system: corn (Zea mays); test: Test A postemergence; settings: Zea mays, post-emergence, 240 h
Summary of the method: as §1

[9] = test system: barnyardgrass (Echinochloa crus-galli); test: Test A postemergence; settings: Echinochloa crus-galli, post-emergence, 240 h
Summary of the method: as §1

[10] = test system: ragweed (common ragweed, Ambrosia elatior); test: Test A postemergence; settings: Ambrosia artemisiifolia, post-emergence, 240 h
Summary of the method: as §1

[11] = test system: ryegrass, Italian (Italian ryegrass, Lolium multiflorum); test: Test A postemergence; settings: Lolium multiflorum, post-emergence, 240 h
Summary of the method: as §1

[12] = test system: giant foxtail (Setaria faberii); test: Test A postemergence; settings: Setaria faberi, post-emergence, 240 h
Summary of the method: as §1

[13] = test system: Galium (catchweed bedstraw, Galium aparine); test: Test A postemergence; settings: Galium, post-emergence, 240 h
Summary of the method: as §1

[14] = test system: Kochia (Kochia scoparia); test: Test A postemergence; settings: Bassia scoparia, post-emergence, 240 h
Summary of the method: as §1

[15] = test system: wheat (Triticum aestivum); test: Test A postemergence; settings: Triticum aestivum, post-emergence, 240 h
Summary of the method: as §1

[16] = test system: pigweed (Amaranthus retroflexus); test: Test A postemergence; settings: Amaranthus retroflexus, post-emergence, 240 h
Summary of the method: as §1

[17] = test system: sedge, umbrella (small-flower umbrella sedge, Cyperus difformis); test: Test B flooded paddy test; settings: Cyperus difformis, 250 g ai/ha, Flood; 0 to 100 scale where 0 is no effect and 100 is complete control; read-out: Sedge, Umbrella plant response rating
Summary of the method: (§2)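 2-leaf plants; pots flooded 3 cm over soil; cpd added to paddy water; depth held; greenhouse 13–15 d; visual rating vs controls, 0 = no effect, 100 = complete control.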

[18] = test system: rice (Oryra sativa); test: Test B flooded paddy test; settings: Oryza sativa, 250 g ai/ha, Flood; 0 to 100 scale where 0 is no effect and 100 is complete control; read-out: Rice plant response rating
Summary of the method: as §2

[19] = test system: barnyardgrass (Echinochloa crus-galli); test: Test B flooded paddy test; settings: Echinochloa crus-galli, 250 g ai/ha, Flood; 0 to 100 scale where 0 is no effect and 100 is complete control; read-out: Barnyardgrass plant response rating
Summary of the method: as §2

[20] = test system: ducksalad (Heteranthera limosa); test: Test B flooded paddy test; settings: Heteranthera limosa, 250 g ai/ha, Flood; 0 to 100 scale where 0 is no effect and 100 is complete control; read-out: Ducksalad plant response rating
Summary of the method: as §2

CSc1ccccc1NC(=O)[C@H]1C(=O)N(C)C[C@@H]1c1ccc(C(F)(F)F)cn1 [Compound 1051]
75%: pest or weed control at 250 g/ha [20]
30%: pest or weed control at 31 g/ha ([4]; 31 g ai/ha, 0 to 100 scale (0 no effect, 100 complete control), read-out: Plant response rating, Foxtail, Giant) | pest or weed control at 31 g/ha ([13]; Postemergence, 31 g ai/ha, visual injury after approx. 10 d, 0 to 100 scale, 0 no effect, 100 complete control, read-out: Plant response rating, Galium)
0%: pest or weed control at 31 g/ha ([1]; 31 g ai/ha, 0 to 100 scale (0 no effect, 100 complete control), read-out: Plant response rating, Barnyardgrass) | pest or weed control at 31 g/ha ([2]; 31 g ai/ha, 0 to 100 scale where 0 is no effect and 100 is complete control, read-out: Ragweed plant response rating) | pest or weed control at 125 g/ha ([2]; 125 g ai/ha, visual injury rating after approximately 10 d, read-out: Ragweed plant response rating (0 to 100 scale, 0 is no effect, 100 is complete control)) | pest or weed control at 31 g/ha ([3]; 31 g ai/ha, 0 to 100 scale where 0 is no effect and 100 is complete control, read-out: Ryegrass, Italian plant response rating) | pest or weed control at 125 g/ha ([3]; 125 g ai/ha, visual injury rating after approximately 10 d, read-out: Ryegrass, Italian plant response rating (0 to 100 scale, 0 is no effect, 100 is complete control)) | pest or weed control at 31 g/ha ([5]; 31 g ai/ha, 0 to 100 scale where 0 is no effect and 100 is complete control, read-out: Kochia plant response rating) | pest or weed control at 125 g/ha ([5]; 125 g ai/ha, visual injury rating after approximately 10 d, read-out: Kochia plant response rating (0 to 100 scale, 0 is no effect, 100 is complete control)) | pest or weed control at 31 g/ha ([6]; 31 g ai/ha, 0 to 100 scale where 0 is no effect and 100 is complete control, read-out: Pigweed plant response rating) | pest or weed control at 125 g/ha ([7]; 125 g ai/ha, postemergence, visual injury on 0 to 100 scale (0 no effect, 100 complete control), approx. 10 d, read-out: Blackgrass plant response rating) | pest or weed control at 31 g/ha ([7]; Postemergence, 31 g ai/ha, visual injury after approx. 10 d, 0 to 100 scale, 0 no effect, 100 complete control, read-out: Plant response rating, Blackgrass) | plant injury at 125 g/ha ([8]; 125 g ai/ha, postemergence, visual injury on 0 to 100 scale (0 no effect, 100 complete control), approx. 10 d, read-out: Corn plant response rating) | Corn plant response rating (crop injury, 0 = no effect, 100 = complete kill) at 31 g/ha ([8]; Postemergence, 31 g ai/ha, visual injury after approx. 10 d, 0 to 100 scale, 0 no effect, 100 complete control) | pest or weed control at 125 g/ha ([9]; 125 g ai/ha, postemergence, visual injury on 0 to 100 scale (0 no effect, 100 complete control), approx. 10 d, read-out: Barnyardgrass plant response rating) | pest or weed control at 31 g/ha ([9]; Postemergence, 31 g ai/ha, visual injury after approx. 10 d, 0 to 100 scale, 0 no effect, 100 complete control, read-out: Plant response rating, Barnyardgrass) | pest or weed control at 125 g/ha ([10]; 125 g ai/ha, postemergence, visual injury on 0 to 100 scale (0 no effect, 100 complete control), approx. 10 d, read-out: Ragweed plant response rating) | pest or weed control at 31 g/ha ([10]; Postemergence, 31 g ai/ha, visual injury after approx. 10 d, 0 to 100 scale, 0 no effect, 100 complete control, read-out: Plant response rating, Ragweed) | pest or weed control at 125 g/ha ([11]; 125 g ai/ha, postemergence, visual injury on 0 to 100 scale (0 no effect, 100 complete control), approx. 10 d, read-out: Ryegrass, Italian plant response rating) | pest or weed control at 31 g/ha ([11]; Postemergence, 31 g ai/ha, visual injury after approx. 10 d, 0 to 100 scale, 0 no effect, 100 complete control, read-out: Plant response rating, Ryegrass, Italian) | pest or weed control at 125 g/ha ([12]; 125 g ai/ha, postemergence, visual injury on 0 to 100 scale (0 no effect, 100 complete control), approx. 10 d, read-out: Foxtail, Giant plant response rating) | pest or weed control at 31 g/ha ([12]; Postemergence, 31 g ai/ha, visual injury after approx. 10 d, 0 to 100 scale, 0 no effect, 100 complete control, read-out: Plant response rating, Foxtail, Giant) | pest or weed control at 125 g/ha ([14]; 125 g ai/ha, postemergence, visual injury on 0 to 100 scale (0 no effect, 100 complete control), approx. 10 d, read-out: Kochia plant response rating) | pest or weed control at 31 g/ha ([14]; Postemergence, 31 g ai/ha, visual injury after approx. 10 d, 0 to 100 scale, 0 no effect, 100 complete control, read-out: Plant response rating, Kochia) | plant injury at 125 g/ha ([15]; 125 g ai/ha, postemergence, visual injury on 0 to 100 scale (0 no effect, 100 complete control), approx. 10 d, read-out: Wheat plant response rating) | plant injury at 31 g/ha ([15]; Postemergence, 31 g ai/ha, visual injury after approx. 10 d, 0 to 100 scale, 0 no effect, 100 complete control, read-out: Plant response rating, Wheat) | pest or weed control at 125 g/ha ([16]; 125 g ai/ha, postemergence, visual injury on 0 to 100 scale (0 no effect, 100 complete control), approx. 10 d, read-out: Pigweed plant response rating) | pest or weed control at 31 g/ha ([16]; Postemergence, 31 g ai/ha, visual injury after approx. 10 d, 0 to 100 scale, 0 no effect, 100 complete control, read-out: Plant response rating, Pigweed) | pest or weed control at 250 g/ha [17] | pest or weed control at 250 g/ha [18] | pest or weed control at 250 g/ha [19]
20%: pest or weed control at 125 g/ha ([1]; 125 g ai/ha, visual injury rating after approximately 10 d, read-out: Barnyardgrass plant response rating (0 to 100 scale, 0 is no effect, 100 is complete control))
40%: pest or weed control at 125 g/ha ([6]; 125 g ai/ha, visual injury rating after approximately 10 d, read-out: Pigweed plant response rating (0 to 100 scale, 0 is no effect, 100 is complete control))
50%: pest or weed control at 125 g/ha ([13]; 125 g ai/ha, postemergence, visual injury on 0 to 100 scale (0 no effect, 100 complete control), approx. 10 d, read-out: Galium plant response rating)
90%: pest or weed control at 125 g/ha ([4]; 125 g ai/ha, visual injury rating after approximately 10 d, read-out: Foxtail, Giant plant response rating (0 to 100 scale, 0 is no effect, 100 is complete control))

From patent US12077503B2, “Substituted cyclic amides and their use as herbicides” (FMC CORPORATION, priority 2015, dated 2024)
